This is an account of results in US6521215B2, “Compositions and methods for tooth treatment” (priority 1999, dated 2003).

The conditions of series [1]: enamel exposed to 10% carbamide peroxide; McCracken and Haywood, 1996; cited from earlier work.
For series [2] the following is noted: Attin et al., 1997, cited from earlier work.
For series [3] the following is noted: scanning electron microscope, 5000× magnification.
A short description of series [4]: Protease enhanced tooth whitening, shade comparison of left and right halves of the enamel surface in vitro. Details: species or system human. Conditions: protease slurry (papain in distilled water) alone vs untreated half of tooth. The procedure: In this experiment, specimens were prepared in vitro by dividing the enamel surface of the teeth into left and right halves with a visible light cured polymer. This allowed a shade comparison of one side to the other. Specimens were divided into two groups. In both groups, one side of the teeth received an application of protease. Protease slurry was prepared by mixing papain (papaya, crude, Type III) with distilled water and applied via a syringe tip applicator. One group of specimens was then immersed in 30% hydrogen peroxide solution. The other group received no further treatment. Thus, in the first group, one-half of the tooth was first treated with papain and then with hydrogen peroxide, and the second half of the tooth was treated with only hydrogen peroxide. In the other group, one-half of the tooth was treated with papain and the second half of the tooth was untreated.

As for `NC(N)=O.OO` [carbamide peroxide], in series [1], the “amount of calcium lost from enamel (average)” value is on record as 1.06 micrograms/mm^2. For the same molecule, in series [2] (10% carbamide peroxide (Opalescence®)), the enamel microhardness entry was “significantly decreased”. In the case of `F` [fluoride], the “hardness of bleached enamel specimens after application” value in series [2] (high concentration fluoride application) was “restore hardness”. For the molecule `OO` [hydrogen peroxide], the “microscopic pitting of the enamel surface” value in series [3] is “not seen”.

B1: papain (protein, UniProt P00784 134-345, looked up)
Papain: IPEYVDWRQKGAVTPVKNQGSCGSCWAFSAVVTIEGIIKIRTGNLNEYSEQELLDCDRRSYGCNGGYPWSALQLVAQYGIHYRNTYPYEGVQRYCRSREKGPYAAKTDGVRQVQPYNEGALLYSIANQPVSVVLEAAGKDFQLYRGGIFVGPCGNKVDHAVAAVGYGPNYILIKNSWGTGWGENGYIRIKRGTGNSYGVCGLYTSSFYPVKN
modifications: crude preparation
notes: Protease slurry prepared by mixing papain (papaya, crude, Type III) with distilled water
Turning to B1, in series [4], the “whitening effect (change in shade) of treated tooth side” value is “will remove stains and “whiten” a tooth”.
